# From article PMC9606187, “Dual HDAC/BRD4 Inhibitors Relieves Neuropathic Pain by Attenuating Inflammatory Response in Microglia After Spared Nerve Injury” (Neurotherapeutics, 2022)
# Columns and labels:
# [1] = target: T1, Recombinant Human Bromodomain containing protein 4, bromodomain 2 (BRD4-BD2) (Homo sapiens, UniProt O60885); test: AlphaScreen bromodomain binding assay (Reaction Biology), BRD4-2
# T1 construct: purchased Reaction Biology (RBC) RD-11–141; host or cells: E. coli
# Experimental: The reader assay is a binding assay using AlphaScreen technology […] assay and was performed by Reaction Biology (www.reactionbiology.com). The biotinylated peptide binding to the reader domain of His-tagged protein is monitored by the singlet oxygen transfer from the Streptavidin-coated donor beads to the AlphaScreen Ni-chelate acceptor beads.
# Reaction buffer: 50 mM Hepes, pH7.5, 100 mM NaCl, 0.05% CHAPS, 0.1% BSA, and 1% DMSO (the final DMSO concentration may differ depending on compound stock and test concentrations).
# Bromodomain: BRD4-1: RBC Cat# RD-11–140: Recombinant Human Bromodomain containing protein 4, bromodomain 1 (aa 44–170; Genbank Accession # NM_058243), expressed in E. coli with N-terminal His-tag. MW = 17.8 kDa; BRD4-2: RBC Cat# RD-11–141: Recombinant Human Bromodomain containing protein 4, bromodomain 2 (aa 349–460;Genbank Accession # NM_058243), expressed in E. coli with N-terminal His-tag. MW = 15.7 kDa. Ligand (C-term-Biotin): Histone H4 peptide (1–21) K5/8/12/16Ac-Biotin. Detection beads: PerkinElmer: Donor beads: Streptavidin-coated donor beads; Acceptor beads: AlphaScreen Ni acceptor beads.
# Reaction procedure: • Deliver 2.5X BRD in wells of reaction plate except No BRD control wells. Add buffer instead. • Deliver compounds in 100% DMSO into the BRD mixture by Acoustic technology (Echo550; nanoliter range). Spin down and pre-incubation for 30 min. • Deliver 5X Ligand. Spin and shake. • Incubate for 30 min at room temperature with gentle shaking. • Deliver 5X donor beads. Spin and shake. • Deliver 5X acceptor beads. Spin and shake. Then gentle shaking in the dark for 60 min. • Alpha measurement (Ex/Em = 680/520–620 nm) in Enspire.
# HDAC1 [2] = target: T2, HDAC1 (Homo sapiens, UniProt Q13547); test: HDAC1 immunoprecipitation & activity assay on treated HCT-116 cells; assay type: cell-based; conditions: HCT-116 cells treated at 10 µM for 12 h; in comparison with SAHA
# T2 construct: endogenous in cells; host or cells: HCT-116
# T2 sequence (Q13547 whole entry): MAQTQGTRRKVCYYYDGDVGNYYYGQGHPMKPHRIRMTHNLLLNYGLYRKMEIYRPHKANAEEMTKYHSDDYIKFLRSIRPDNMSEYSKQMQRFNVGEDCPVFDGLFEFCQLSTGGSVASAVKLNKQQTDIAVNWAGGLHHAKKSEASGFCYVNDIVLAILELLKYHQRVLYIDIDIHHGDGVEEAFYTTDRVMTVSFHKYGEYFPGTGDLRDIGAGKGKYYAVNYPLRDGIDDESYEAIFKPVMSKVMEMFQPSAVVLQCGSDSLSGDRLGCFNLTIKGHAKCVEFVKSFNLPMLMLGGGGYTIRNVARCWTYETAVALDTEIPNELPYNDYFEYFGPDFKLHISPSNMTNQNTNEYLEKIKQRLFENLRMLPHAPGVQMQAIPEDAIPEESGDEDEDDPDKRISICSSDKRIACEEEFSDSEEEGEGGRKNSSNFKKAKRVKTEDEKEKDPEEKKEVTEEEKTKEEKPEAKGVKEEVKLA
# Experimental: HDAC assay: To test the inhibition activity of compounds, the HDAC1 immunoprecipitation (IP) & Activity Assay Kit (Catalog # K342-25; Biovision) was used under the protocol provided by the kit. HCT-116 cell lines were plated in 6 wells and treated with the investigated compounds at 10 µM for 12 h. After incubation, the media was removed, and the cells were washed with PBS (EuroClone) solution (2X). Then, 200 µl/well of lysis buffer with protease inhibitor was added and the cells were scraped and incubated in ice for 30 min. After centrifugation at 10,000 g for 10 min at 4 °C, the supernatant was collected. One hundred micrograms of each extract was incubated with 6 µl of Rabbit HDAC1 antibody and Rabbit IgG and the volume was reached to 500 µl with PBS with protease inhibitors. After incubation at 4 °C overnight a rotary mixer, 25 µl of the protein-A/G bead slurry, previously washed with PBS (2X), was added to the samples and incubated for 1 h at 4 °C. The beads were recovered after 3 washes with 1 ml PBS, by centrifuging at 14,000 g for ~ 10 s and used for HDAC assay.
# HDAC assay preparation: For each reaction, 168 µl reaction mix containing HDAC assay buffer and HDAC substrate was prepared, added to the sample and to background control tube, and incubated at 37 °C for 2 h. SAHA was used as a positive control. […] The fluorescence was read at Ex/Em = 380/500 nm with Tecan M1000 plate reader.
# SNI mice = test: Mechanical allodynia (Dynamic Plantar Aesthesiometer) in SNI mice; assay type: in vivo
# Experimental: Mice were randomly assigned to each treatment group. […] Maria Novella Romanelli, iBET762 (molibresib; (4S)-6-(4-Chlorophenyl)-N-ethyl-8-methoxy-1-methyl-4H-[1,2,4]triazolo[4,3,a][1,4] benzodiazepine-4-acetamide, and SAHA (vorinostat; suberoylanilide hydroxamic acid) (Sigma-Aldrich, Italy) were administered 15 min before the tests. Drugs were dissolved in 5% DMSO. Drug concentrations were prepared in such a way that the necessary dose could be administered in a volume of 10 µl per mouse by intranasal (i.n.) administration. The experimental protocol to test the effect of treatments on behavioral and in vitro tests included 3 control groups: untreated, vehicle (5% DMSO), and saline.
# For i.n. administration, mice were slightly anesthetized by 2% isoflurane inhalation and placed in a supine position [30]. A 5 μl aliquot of solution (treatments or vehicle) was slowly dropped alternatively to each nostril with a micropipette tip.
# Behavioral testing was performed before surgery to establish a baseline for comparison with post-surgical values. Mono-neuropathy was induced by spared nerve injury and this model of pain in mice has been in use for several years [31]. The SNI procedure was performed as previously described [31].
# Animals were habituated to the testing environment daily for at least 2 days before baseline testing. To evaluate onset and progression of pain hypersensitivity, neuropathic mice were monitored by measuring nociceptive responses every 30 min for 3 h before surgery or 3, 7, 10, and 14 days after nerve surgery. Experiments were performed on post-surgery day 7 and 14 when the pain hypersensitivity was well established. Each mouse served as its own control, the responses being measured both before and after surgery. All testing was performed with a blind procedure.
# Mechanical allodynia was measured by using Dynamic Plantar Aesthesiometer (Ugo Basile, Bologna, Italy), as described [32]. Nociceptive response for mechanical sensitivity was expressed as mechanical paw withdrawal threshold (PWT) in grams. PWT was quantified by an observer blinded to the treatment.
# [3] = system: MAPK p38 (phosphorylated); test: Western blot of lumbar spinal cord, p-p38; assay type: in vivo, mice; conditions: SNI ipsilateral side, day 7 and 14
# Experimental: (§1) The lumbar spinal cord was removed 7 and 14 days after surgery and 90 min after the intranasal administration of SUM52, corresponding to the peack of the effect. Samples (n = 4 for groups) were homogenized in a homogenization buffer and processed as previously described. Protein samples (40 µg of protein/sample) were separated on 10% SDS-PAGE and transferred onto nitrocellulose membranes (120 min at 100 V) using standard procedures. Membranes were blocked in PBST (PBS containing 0.1% Tween) containing 5% nonfat dry milk for 120 min. […] Blots were then extensively washed and developed using enhanced chemiluminescence detection system (Pierce, Milan, Italy) and signal intensity (pixels/mm^2) quantified (ImageJ, NIH). […] For each sample, the signal intensity was normalized to that of total protein stained by Ponceau S and the acquired images were quantified using Image Lab software. […]
# HDAC1 [4] = test: Western blot of lumbar spinal cord, HDAC1; assay type: in vivo, mice; conditions: SNI ipsilateral side, day 7 and 14 post-surgery, i.n.
# Experimental: as §1
# [5] = system: p65 subunit of NF-kB (phosphorylated); test: Western blot of lumbar spinal cord, p-NF-kB p65; assay type: in vivo, mice; conditions: SNI ipsilateral side, day 7 and 14
# Experimental: as §1
smiles,measurement,setting,value
"Cc1nnc2n1-c1ccccc1C(c1ccccc1)=N[C@H]2CC(=O)NCCCCCCC(=O)NO [SUM52, (S)-N-hydroxy-7-(2-(1-methyl-6-phenyl-4H-benzo[f][1,2,4]triazolo[4,3-a][1,4]diazepin-4-yl)acetamido)heptanamide]",IC50,[1],10.5 nM
same,preference between BRD4-BD1 and BRD4-BD2 domains,[1]; BRD4-BD1 vs BRD4-BD2,preferential interaction for BRD4-BD2
same,inhibition of HDAC1 enzymatic activity,HDAC1 [2],Partial inhibition
same,"mechanical antiallodynic activity, ipsilateral side",SNI mice; 10–100 µM i.n.,attenuated SNI-induced mechanical allodynia
same,duration of activity in attenuating mechanical allodynia compared with SUM35,SNI mice; SUM52 50 µM vs SUM35 100 µM,more prolonged activity
same,efficacy in attenuating mechanical allodynia compared with SUM35,"SNI mice; SUM52 50 µM vs SUM35 100 µM, day 7 and 14 post-surgery",higher efficacy
same,mechanical analgesic effect in the contralateral side,SNI mice; contralateral (uninjured) side of SNI mice,absence
same,mechanical antiallodynic efficacy compared with SAHA + iBET762 combination,"SNI mice; time-course comparison, combination i-BET762 10 µg, SAHA 3 µg",comparable efficacy
same,phosphorylation of MAPK p38,[3],drastically reduced
same,spinal HDAC1 protein expression,HDAC1 [4],restored both epigenetic enzyme levels to control values
same,phosphorylation of the p65 subunit of NF-kB,[5],robustly reduced by SUM52 up to baseline values
